{"source": "paper PMC9714824", "about": "“Hexapeptides from mammalian inhibitory hormone hunt activate and inactivate nematode reproduction” (PLOS ONE, 2022)", "key": {"[1]": {"tested_on": "Caenorhabditis elegans", "details": "1μM per day into the aqueous medium; cited from earlier work"}, "[2]": {"assay": "Toxicity study in immunodeficient nude mice", "assay_type": "in vivo, female Balb/c immunodeficient nude mice", "details": "for Toxicity: in words; for Maximum weight loss compared to Day 0: groups of 2 mice", "procedure": "For toxicity studies female Balb/c immunodeficient nude mice were used (B & K Universal, Hull, UK), aged 6–8 weeks old. They were housed in cages in isolation cabinets in an air-conditioned room with regular alternating cycles of light and darkness and received Teklad 2018 (Envigo) diet and water ad libitum. EPL001 and EPL030 in PBS at pH7.4 were administered to groups of 2 mice intraperitoneally (i.p.) daily on Days 0–4 at 500 mg/kg/dose and then 1000 mg/kg/dose. Following treatment, body weight was measured on a regular basis, and behaviour and general appearance monitored visually to assess for deleterious effects (e.g. dehydration, impaired mobility, hunched posture, low body temperature, ulceration and significant body weight loss), with any effects during the study recorded. […] If no deleterious effects were seen after at least 16 days of study, then the animals were sacrificed, with the dose considered non-toxic.\nFor toxicity studies female Balb/c immunodeficient nude mice were used (B & K Universal, Hull, UK), aged 6-8 weeks old. They were housed in cages in isolation cabinets in an air-conditioned room with regular alternating cycles of light and darkness and received Teklad 2018 (Envigo) diet and water ad libitum. EPL001 and EPL030 in PBS at pH7.4 were administered to groups of 2 mice intraperitoneally (i.p.) daily on days 0-4 at 500mg/kg/dose and then 1000mg/kg/dose. Following treatment, body weight was measured on a regular basis, and behaviour and general appearance monitored visually to assess for deleterious effects (e.g. dehydration, impaired mobility, hunched posture, low body temperature, ulceration and significant body weight loss), with any effects during the study recorded."}, "[3]": {"tested_on": "PC3 cells", "assay": "MTS colorimetric viable cell assay, PC3", "assay_type": "cell-based, human", "details": "for OD below that of EPL001: PC3 time course study", "procedure,_shortened": "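Cells seeded at 8,000/well, given peptides (14mer to 6mer) at 30 μM final at the outset, triplicate, buffer controls; viable cells by MTS absorbance at 492 nm after 27 h growth. Data as OD mean ± SEM, two-tailed t-test; a 14mer time course on PC3 read at 24 and 48 h.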"}, "[4]": {"tested_on": "rat bone marrow cells", "assay": "Bone marrow cell assay, time-lapse cell counts over 24h", "assay_type": "cell-based", "details": "EPL001, EPL030 at 6μM, EPL120 at 5μM final concentration, in words (Fig 6)"}, "[5]": {"details": "500mg/kg/day ip Days 0 to 4, on Day 2"}, "[6]": {"details": "1000mg/kg/day ip Days 0 to 4, EPL030 on Day 3, EPL001 on Day 1"}}, "data": [{"sequence": "KLKMNGKNIEPVFT [EPL030, …, scrambled EPL001 control]", "values": [{"measurement": "Fecundity (number of eggs), cumulative totals vs untreated controls", "setting": "[1]", "result": "−64", "unit": "%"}, {"measurement": "Lifespan, average vs untreated controls", "setting": "[1]", "result": "+23%"}, {"measurement": "Toxicity", "setting": "[2]; 500mg/kg/day ip Days 0 to 4", "result": "No discernible toxicity"}, {"measurement": "Maximum weight loss compared to Day 0", "setting": "[2]; [5]", "result": 4.0, "unit": "%"}, {"measurement": "Maximum weight loss compared to Day 0", "setting": "[2]; [6]", "result": 7.0, "unit": "%"}, {"measurement": "Toxicity", "setting": "[2]; 1000mg/kg/day ip Days 0 to 4", "result": "no discernible signs of toxicity"}, {"measurement": "OD below that of EPL001", "setting": "[3]; 24h", "result": 18.9, "unit": "%"}, {"measurement": "OD below that of EPL001", "setting": "[3]; 48h", "result": 51.3, "unit": "%"}, {"measurement": "Effect on bone marrow cells in culture", "setting": "[4]", "result": "pro-apoptotic"}]}, {"sequence": "MKPLTGKVKEFNNI [EPL001, 14mer master test peptide …; ovine provenance]", "values": [{"measurement": "Fecundity (number of eggs), cumulative totals vs untreated controls", "setting": "[1]", "result": "+43%"}, {"measurement": "Lifespan, average vs untreated controls", "setting": "[1]", "result": "+18%"}, {"measurement": "Toxicity", "setting": "[2]; 500mg/kg/day ip Days 0 to 4", "result": "No discernible toxicity"}, {"measurement": "Maximum weight loss compared to Day 0", "setting": "[2]; [5]", "result": 5.0, "unit": "%"}, {"measurement": "Maximum weight loss compared to Day 0", "setting": "[2]; [6]", "result": 3.5, "unit": "%"}, {"measurement": "Toxicity", "setting": "[2]; 1000mg/kg/day ip Days 0 to 4", "result": "no discernible signs of toxicity"}, {"measurement": "Difference in percentage terms between control and test OD means", "setting": "[3]; PC3, 30 μM, 27h, MTS, 492 nm, triplicate", "result": "−0.7", "unit": "%"}, {"measurement": "Effect on bone marrow cells in culture", "setting": "[4]", "result": "antiproliferative"}]}]}
